Source: article PMC3713518, “Structure-based discovery of fiber-binding compounds that reduce the cytotoxicity of amyloid beta” (eLife, 2013)

Experiments:
[1] = biological target: T1, Aβ1–42 fibers (Homo sapiens, UniProt P05067); test: 1H NMR of compound with fibers; conditions: PBS pH 7.4, 283 K; binding to full-length Abeta fibers
T1 construct: gene APP; residues 1-42 of Abeta from APP polyprotein; E. coli His-(NANP)19-TEV fusion, tag cut by TEV; fibrils grown 2 months
From the text: 1H NMR of compound with fibers on Aβ1–42 fibers

[2] = biological target: T2, KLVFFA (Aβ16–21) fibers (Homo sapiens, UniProt P05067); test: 1H NMR titration of compound with fibers; type: binding
T2 construct: gene APP; fibrils grown 3 months; segment of Abeta cut from APP polyprotein

T1 sequence (P05067 672-713): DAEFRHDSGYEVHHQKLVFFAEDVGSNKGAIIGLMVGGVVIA

For `O=S(=O)(O)c1cc(S(=O)(=O)O)c2c(N=Nc3ccccc3)c(O)ccc2c1` [orange G], the “Binding to Aβ fiber / NMR peak reduction (%)” value [1] was 6% and the Kd [2] was 43 ± 21 µM.

`Cc1ccc(O)c(N=Nc2c(O)cc(S(=O)(=O)O)c3ccccc23)c1` [BAF8] was tested, and the “Binding to Aβ fiber / NMR peak reduction (%)” value [1] was 13% and the Kd [2] was 24 ± 5 µM.

With `O=C1OC2(c3ccccc31)c1cc(Br)c(O)c(Br)c1Oc1c2cc(Br)c(O)c1Br` [BAF1] the “Binding to Aβ fiber / NMR peak reduction (%)” value [1] was 8% and the Kd [2] was 12 ± 7 µM.
